# Experiments:
# Format in all cases: functional
# [1] = system: Staphylococcus aureus; assay: Antibacterial activity against methicillin-resistant Staphylococcus aureus by CLSI M7-A7 broth microdilution method
# [2] = system: Staphylococcus aureus; assay: Antibacterial activity against methicillin-susceptible Staphylococcus aureus assessed as resistant isolates by CLSI M7-A7 broth microdilution method
# [3] = system: Streptococcus viridans; assay: Antibacterial activity against penicillin-susceptible Streptococcus viridans assessed as susceptible isolates by CLSI M7-A7 broth microdilution method
# [4] = system: Staphylococcus aureus; assay: Antibacterial activity against coagulase-negative and oxacillin-susceptible Staphylococcus aureus assessed as resistant isolates by CLSI M7-A7 broth microdilution method
# [5] = system: Enterococcus faecalis; assay: Antibacterial activity against vancomycin-susceptible Enterococcus faecalis assessed as resistant isolates by CLSI M7-A7 broth microdilution method
# [6] = system: Staphylococcus aureus; assay: Antibacterial activity against coagulase-negative and oxacillin-susceptible Staphylococcus aureus assessed as susceptible isolates by CLSI M7-A7 broth microdilution method
# [7] = system: Staphylococcus aureus; assay: Antibacterial activity against methicillin-resistant Staphylococcus aureus assessed as resistant isolates by CLSI M7-A7 broth microdilution method
# [8] = system: Streptococcus agalactiae; assay: Antibacterial activity against erythromycin-nonsusceptible Streptococcus agalactiae assessed as susceptible isolates by CLSI M7-A7 broth microdilution method
# [9] = system: Streptococcus viridans; assay: Antibacterial activity against penicillin-nonsusceptible Streptococcus viridans by CLSI M7-A7 broth microdilution method
# [10] = system: Streptococcus agalactiae; assay: Antibacterial activity against erythromycin-nonsusceptible Streptococcus agalactiae by CLSI M7-A7 broth microdilution method
# [11] = system: Enterococcus faecalis; assay: Antibacterial activity against vancomycin-resistant Enterococcus faecalis by CLSI M7-A7 broth microdilution method
# [12] = system: Streptococcus pyogenes; assay: Antibacterial activity against erythromycin-susceptible Streptococcus pyogenes assessed as susceptible isolates by CLSI M7-A7 broth microdilution method
# [13] = system: Enterococcus faecalis; assay: Antibacterial activity against vancomycin-susceptible Enterococcus faecalis assessed as susceptible isolates by CLSI M7-A7 broth microdilution method
# [14] = system: Staphylococcus aureus; assay: Antibacterial activity against methicillin-susceptible Staphylococcus aureus by CLSI M7-A7 broth microdilution method
# [15] = system: Moraxella catarrhalis; assay: Antibacterial activity against beta lactamase-positive Moraxella catarrhalis by CLSI M7-A7 broth microdilution method
# [16] = system: Enterococcus faecium; assay: Antibacterial activity against vancomycin-resistant Enterococcus faecium assessed as susceptible isolates by CLSI M7-A7 broth microdilution method
# [17] = system: Enterococcus faecalis; assay: Antibacterial activity against vancomycin-resistant Enterococcus faecalis assessed as resistant isolates by CLSI M7-A7 broth microdilution method
# [18] = system: Streptococcus pyogenes; assay: Antibacterial activity against erythromycin-nonsusceptible Streptococcus pyogenes by CLSI M7-A7 broth microdilution method
# [19] = system: Enterococcus faecium; assay: Antibacterial activity against vancomycin-resistant Enterococcus faecium by CLSI M7-A7 broth microdilution method
# [20] = system: Staphylococcus aureus; assay: Antibacterial activity against coagulase-negative and oxacillin-resistant Staphylococcus aureus assessed as susceptible isolates by CLSI M7-A7 broth microdilution method
# [21] = system: Staphylococcus aureus; assay: Antibacterial activity against methicillin-resistant Staphylococcus aureus assessed as susceptible isolates by CLSI M7-A7 broth microdilution method
# [22] = system: Staphylococcus aureus; assay: Antibacterial activity against methicillin-susceptible Staphylococcus aureus assessed as susceptible isolates by CLSI M7-A7 broth microdilution method
# [23] = system: Staphylococcus aureus; assay: Antibacterial activity against coagulase-negative and oxacillin-resistant Staphylococcus aureus by CLSI M7-A7 broth microdilution method
# [24] = system: Streptococcus pyogenes; assay: Antibacterial activity against erythromycin-susceptible Streptococcus pyogenes by CLSI M7-A7 broth microdilution method
# [25] = system: Enterococcus faecalis; assay: Antibacterial activity against vancomycin-susceptible Enterococcus faecalis by CLSI M7-A7 broth microdilution method
# [26] = system: Enterococcus faecium; assay: Antibacterial activity against vancomycin-resistant Enterococcus faecium assessed as resistant isolates by CLSI M7-A7 broth microdilution method
# [27] = system: Staphylococcus aureus; assay: Antibacterial activity against coagulase-negative and oxacillin-susceptible Staphylococcus aureus by CLSI M7-A7 broth microdilution method
# [28] = system: Streptococcus viridans; assay: Antibacterial activity against penicillin-susceptible Streptococcus viridans by CLSI M7-A7 broth microdilution method
# [29] = system: Streptococcus pyogenes; assay: Antibacterial activity against erythromycin-nonsusceptible Streptococcus pyogenes assessed as susceptible isolates by CLSI M7-A7 broth microdilution method
# [30] = system: Streptococcus agalactiae; assay: Antibacterial activity against erythromycin-susceptible Streptococcus agalactiae assessed as susceptible isolates by CLSI M7-A7 broth microdilution method
# [31] = system: Streptococcus agalactiae; assay: Antibacterial activity against erythromycin-susceptible Streptococcus agalactiae by CLSI M7-A7 broth microdilution method
# [32] = system: Staphylococcus aureus; assay: Antibacterial activity against coagulase-negative and oxacillin-resistant Staphylococcus aureus assessed as resistant isolates by CLSI M7-A7 broth microdilution method
# [33] = system: Pasteurella multocida; assay: Antibacterial activity against Pasteurella multocida by CLSI M7-A7 broth microdilution method
# [34] = system: Streptococcus viridans; assay: Antibacterial activity against penicillin-nonsusceptible Streptococcus viridans assessed as resistant isolates by CLSI M7-A7 broth microdilution method
# [35] = system: Streptococcus viridans; assay: Antibacterial activity against penicillin-nonsusceptible Streptococcus viridans assessed as susceptible isolates by CLSI M7-A7 broth microdilution method
# [36] = system: Streptococcus pneumoniae; assay: Antibacterial activity against penicillin-susceptible Streptococcus pneumoniae assessed as susceptible isolates by CLSI M7-A7 broth microdilution method
# [37] = system: Streptococcus pneumoniae; assay: Antibacterial activity against penicillin-resistant Streptococcus pneumoniae assessed as susceptible isolates by CLSI M7-A7 broth microdilution method
# [38] = system: Streptococcus pneumoniae; assay: Antibacterial activity against penicillin-resistant Streptococcus pneumoniae by CLSI M7-A7 broth microdilution method
# [39] = system: Streptococcus pneumoniae; assay: Antibacterial activity against penicillin-susceptible Streptococcus pneumoniae by CLSI M7-A7 broth microdilution method
# [40] = system: Enterococcus faecalis; assay: Antibacterial activity against vancomycin-resistant Enterococcus faecalis assessed as susceptible isolates by CLSI M7-A7 broth microdilution method
compound,measurement,setting,value
CC1(C)S[C@@H]2[C@H](NC(=O)Cc3ccccc3)C(=O)N2[C@H]1C(=O)O [PENICILLIN G],MIC50,[1],> 16 µg/mL
same,Activity,[2],83.3%
same,Activity,[3],100%
same,Activity,[4],67.7%
same,Activity,[5],0%
same,Activity,[6],32.3%
same,Activity,[7],99.5%
same,Activity,[8],95.2%
same,MIC50,[9],0.5 µg/mL
same,MIC90,[9],8 µg/mL
same,MIC,[10],≤ 0.12 µg/mL
same,MIC50,[10],≤ 0.12 µg/mL
same,MIC90,[10],≤ 0.12 µg/mL
same,MIC50,[11],2 µg/mL
same,MIC90,[11],4 µg/mL
same,Activity,[12],98.9%
same,Activity,[13],100%
same,MIC50,[14],4 µg/mL
same,MIC90,[14],> 16 µg/mL
same,MIC50,[15],4 µg/mL
same,MIC90,[15],16 µg/mL
same,Activity,[16],0%
same,Activity,[17],0%
same,MIC,[18],≤ 0.12 µg/mL
same,MIC50,[18],≤ 0.12 µg/mL
same,MIC90,[18],≤ 0.12 µg/mL
same,MIC,[19],> 16 µg/mL
same,MIC50,[19],> 16 µg/mL
same,MIC90,[19],> 16 µg/mL
same,Activity,[20],2.3%
same,Activity,[21],0.5%
same,Activity,[22],16.7%
same,MIC50,[23],8 µg/mL
same,MIC,[24],≤ 0.12 µg/mL
same,MIC50,[24],≤ 0.12 µg/mL
same,MIC90,[24],≤ 0.12 µg/mL
same,MIC50,[25],2 µg/mL
same,MIC90,[25],4 µg/mL
same,Activity,[26],100%
same,MIC50,[27],0.5 µg/mL
same,MIC90,[27],2 µg/mL
same,MIC,[28],≤ 0.12 µg/mL
same,MIC50,[28],≤ 0.12 µg/mL
same,MIC90,[28],≤ 0.12 µg/mL
same,Activity,[29],100%
same,Activity,[30],100%
same,MIC,[31],≤ 0.12 µg/mL
same,MIC50,[31],≤ 0.12 µg/mL
same,MIC90,[31],≤ 0.12 µg/mL
same,Activity,[32],97.7%
same,MIC50,[33],≤ 0.12 µg/mL
same,MIC90,[33],0.25 µg/mL
same,Activity,[34],28.6%
same,Activity,[35],0%
CN[C@H](CC(C)C)C(=O)N[C@H]1C(=O)N[C@@H](CC(N)=O)C(=O)N[C@H]2C(=O)N[C@H]3C(=O)N[C@H](C(=O)N[C@H](C(=O)O)c4cc(O)cc(O)c4-c4cc3ccc4O)[C@H](O)c3ccc(c(Cl)c3)Oc3cc2cc(c3O[C@@H]2O[C@H](CO)[C@@H](O)[C@H](O)[C@H]2O[C@H]2C[C@](C)(N)[C@H](O)[C@H](C)O2)Oc2ccc(cc2Cl)[C@H]1O [VANCOMYCIN],MIC50,[1],1 µg/mL
same,MIC90,[1],1 µg/mL
same,Activity,[2],0%
same,Activity,[3],100%
same,Activity,[4],0%
same,Activity,[5],0%
same,Activity,[7],0.3%
same,Activity,[8],100%
same,Activity,[36],100%
same,MIC,[9],0.5 µg/mL
same,MIC50,[9],0.5 µg/mL
same,MIC90,[9],1 µg/mL
same,MIC50,[10],0.5 µg/mL
same,MIC90,[10],0.5 µg/mL
same,Activity,[37],100%
same,MIC,[11],> 16 µg/mL
same,MIC50,[11],> 16 µg/mL
same,MIC90,[11],> 16 µg/mL
same,MIC50,[38],0.25 µg/mL
same,MIC90,[38],0.5 µg/mL
same,Activity,[12],100%
same,Activity,[13],100%
same,MIC50,[14],0.5 µg/mL
same,MIC90,[14],1 µg/mL
same,Activity,[16],0%
same,Activity,[17],100%
same,MIC,[18],0.25 µg/mL
same,MIC50,[18],0.25 µg/mL
same,MIC90,[18],0.5 µg/mL
same,MIC,[19],> 16 µg/mL
same,MIC50,[19],> 16 µg/mL
same,MIC90,[19],> 16 µg/mL
same,MIC50,[23],1 µg/mL
same,MIC90,[23],2 µg/mL
same,MIC50,[39],0.25 µg/mL
same,MIC90,[39],0.5 µg/mL
same,MIC,[24],0.25 µg/mL
same,MIC50,[24],0.25 µg/mL
same,MIC90,[24],0.5 µg/mL
same,MIC50,[25],1 µg/mL
same,MIC90,[25],2 µg/mL
same,Activity,[26],100%
same,MIC50,[27],1 µg/mL
same,MIC90,[27],2 µg/mL
same,MIC50,[28],0.5 µg/mL
same,MIC90,[28],0.5 µg/mL
same,Activity,[29],100%
same,Activity,[30],100%
same,MIC50,[31],0.5 µg/mL
same,MIC90,[31],0.5 µg/mL
same,Activity,[40],0%
same,Activity,[32],0%
same,Activity,[35],92.9%
